Laboratory results as given in the kinase profiling compilation of Christmann-Franck et al. (2016).

Tests used:
Test in all cases: KINOMEscan competition binding
Details in all cases: compound 10.0 µM
[1] = biological target: BMX (human) (UniProt P51813)
[2] = biological target: BRSK2 (human) (UniProt Q8IWQ3)
[3] = biological target: CDKL3 (human) (UniProt Q8IVW4)
[4] = biological target: CaMK1 (human) (UniProt Q14012)
[5] = biological target: DAPK2 (human) (UniProt Q9UIK4)
[6] = biological target: DSTYK (human) (UniProt Q6XUX3)
[7] = biological target: DYRK1A (human) (UniProt Q13627)
[8] = biological target: EPHA6 (human) (UniProt Q9UF33)
[9] = biological target: ERBB4 (human) (UniProt Q15303)
[10] = biological target: FGR (human) (UniProt P09769)
[11] = tested on: FLT3 (human), P36888 [K663Q]
[12] = biological target: INSR (human) (UniProt P06213)
[13] = biological target: LATS2 (human) (UniProt Q9NRM7)
[14] = biological target: MAP2K1 (human) (UniProt Q02750)
[15] = biological target: MAP3K12 (human) (UniProt Q12852)
[16] = biological target: MARK1 (human) (UniProt Q9P0L2)
[17] = biological target: MARK4 (human) (UniProt Q96L34)
[18] = biological target: MKNK1 (human) (UniProt Q9BUB5)
[19] = biological target: MYLK2 (human) (UniProt Q9H1R3)
[20] = biological target: NEK5 (human) (UniProt Q6P3R8)
[21] = biological target: NEK6 (human) (UniProt Q9HC98)
[22] = biological target: NTRK2 (human) (UniProt Q16620)
[23] = biological target: PAK4 (human) (UniProt O96013)
[24] = biological target: PDPK1 (human) (UniProt O15530)
[25] = biological target: PIK3C2B (human) (UniProt O00750)
[26] = biological target: PRKAA1 (human) (UniProt Q13131)
[27] = biological target: PRKCI (human) (UniProt P41743)
[28] = tested on: RET (human), P07949 [V804L]
[29] = biological target: RIPK2 (human) (UniProt O43353)
[30] = biological target: RPS6KA2 KD2 (human) (UniProt Q15349)
[31] = biological target: RPS6KA3 KD1 (human) (UniProt P51812)
[32] = biological target: RPS6KA6 KD2 (human) (UniProt Q9UK32)
[33] = biological target: SIK2 (human) (UniProt Q9H0K1)
[34] = biological target: SRPK1 (human) (UniProt Q96SB4)
[35] = biological target: STK38 (human) (UniProt Q15208)
[36] = biological target: TAOK1 (human) (UniProt Q7L7X3)
[37] = biological target: TAOK2 (human) (UniProt Q9UL54)
[38] = biological target: TAOK3 (human) (UniProt Q9H2K8)
[39] = biological target: TNNI3K (human) (UniProt Q59H18)
[40] = biological target: TYK2 JH2 pseudokinase (human) (UniProt P29597)
[41] = biological target: YSK4 (human) (UniProt Q56UN5)
[42] = biological target: ZAP70 (human) (UniProt P43403)

Sequence of NEK5 (human) (Q6P3R8 whole entry, looked up): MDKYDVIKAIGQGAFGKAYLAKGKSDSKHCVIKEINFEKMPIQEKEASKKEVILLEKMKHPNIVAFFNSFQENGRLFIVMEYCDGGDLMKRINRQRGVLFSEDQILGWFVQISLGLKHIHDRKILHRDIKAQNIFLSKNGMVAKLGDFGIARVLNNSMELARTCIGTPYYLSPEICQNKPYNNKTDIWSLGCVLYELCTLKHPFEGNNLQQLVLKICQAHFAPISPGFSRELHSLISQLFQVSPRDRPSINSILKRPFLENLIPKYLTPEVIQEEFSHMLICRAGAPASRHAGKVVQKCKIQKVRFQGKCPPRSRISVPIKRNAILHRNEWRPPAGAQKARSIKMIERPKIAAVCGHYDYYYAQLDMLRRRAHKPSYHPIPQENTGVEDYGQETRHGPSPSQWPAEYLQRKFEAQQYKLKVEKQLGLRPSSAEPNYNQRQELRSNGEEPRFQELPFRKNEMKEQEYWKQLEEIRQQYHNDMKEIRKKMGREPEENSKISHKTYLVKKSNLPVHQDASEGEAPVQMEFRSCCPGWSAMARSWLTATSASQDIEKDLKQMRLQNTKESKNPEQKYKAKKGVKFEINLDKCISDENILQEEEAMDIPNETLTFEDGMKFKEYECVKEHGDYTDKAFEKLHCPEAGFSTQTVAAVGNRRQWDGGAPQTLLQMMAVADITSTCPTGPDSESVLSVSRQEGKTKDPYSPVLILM
Sequence of YSK4 (human) (Q56UN5 whole entry, looked up): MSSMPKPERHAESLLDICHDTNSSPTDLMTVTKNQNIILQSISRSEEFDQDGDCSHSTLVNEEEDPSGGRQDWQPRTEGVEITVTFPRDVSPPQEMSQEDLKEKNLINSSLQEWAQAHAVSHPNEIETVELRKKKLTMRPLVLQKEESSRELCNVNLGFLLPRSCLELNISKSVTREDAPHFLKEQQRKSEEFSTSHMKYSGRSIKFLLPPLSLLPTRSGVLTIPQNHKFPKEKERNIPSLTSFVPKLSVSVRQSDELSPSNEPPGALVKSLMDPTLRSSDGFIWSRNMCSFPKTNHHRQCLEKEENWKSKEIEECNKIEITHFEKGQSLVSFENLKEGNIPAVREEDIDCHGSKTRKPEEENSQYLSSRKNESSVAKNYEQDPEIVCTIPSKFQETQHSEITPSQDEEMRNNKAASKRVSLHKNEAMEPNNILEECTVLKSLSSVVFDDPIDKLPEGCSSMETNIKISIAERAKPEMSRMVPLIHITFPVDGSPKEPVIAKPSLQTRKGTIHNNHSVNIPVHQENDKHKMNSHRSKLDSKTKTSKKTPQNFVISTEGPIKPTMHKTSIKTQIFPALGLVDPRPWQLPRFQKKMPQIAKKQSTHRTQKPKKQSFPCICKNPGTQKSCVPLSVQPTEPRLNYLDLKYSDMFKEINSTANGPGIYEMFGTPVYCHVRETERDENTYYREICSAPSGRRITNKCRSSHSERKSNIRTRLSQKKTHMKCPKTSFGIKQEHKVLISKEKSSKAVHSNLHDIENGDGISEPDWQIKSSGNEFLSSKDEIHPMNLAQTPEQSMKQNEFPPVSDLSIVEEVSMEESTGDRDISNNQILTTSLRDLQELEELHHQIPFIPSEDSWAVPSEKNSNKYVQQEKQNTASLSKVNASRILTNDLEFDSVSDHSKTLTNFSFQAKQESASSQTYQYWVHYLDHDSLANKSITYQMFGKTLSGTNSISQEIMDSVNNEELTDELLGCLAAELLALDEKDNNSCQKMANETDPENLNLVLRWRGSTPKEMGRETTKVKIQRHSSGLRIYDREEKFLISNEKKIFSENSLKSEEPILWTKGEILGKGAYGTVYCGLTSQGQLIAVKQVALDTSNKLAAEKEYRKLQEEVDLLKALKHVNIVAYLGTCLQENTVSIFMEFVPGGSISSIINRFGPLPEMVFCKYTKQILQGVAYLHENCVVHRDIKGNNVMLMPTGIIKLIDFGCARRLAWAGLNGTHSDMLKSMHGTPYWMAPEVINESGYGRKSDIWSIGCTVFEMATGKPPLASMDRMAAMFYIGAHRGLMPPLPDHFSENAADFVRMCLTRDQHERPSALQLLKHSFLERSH
Sequence of CaMK1 (human) (Q14012 whole entry, looked up): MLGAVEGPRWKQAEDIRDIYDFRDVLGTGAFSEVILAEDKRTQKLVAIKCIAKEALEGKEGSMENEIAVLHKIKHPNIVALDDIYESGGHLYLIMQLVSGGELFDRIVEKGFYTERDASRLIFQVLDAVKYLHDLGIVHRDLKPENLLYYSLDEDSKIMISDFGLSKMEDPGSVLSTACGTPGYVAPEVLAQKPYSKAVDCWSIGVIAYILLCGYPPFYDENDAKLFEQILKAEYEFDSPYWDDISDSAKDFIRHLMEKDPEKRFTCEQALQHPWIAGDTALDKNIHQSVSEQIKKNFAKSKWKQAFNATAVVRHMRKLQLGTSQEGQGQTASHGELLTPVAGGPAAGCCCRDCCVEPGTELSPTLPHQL
Sequence of RET (human), P07949 [V804L] (P07949 whole entry V804L, looked up): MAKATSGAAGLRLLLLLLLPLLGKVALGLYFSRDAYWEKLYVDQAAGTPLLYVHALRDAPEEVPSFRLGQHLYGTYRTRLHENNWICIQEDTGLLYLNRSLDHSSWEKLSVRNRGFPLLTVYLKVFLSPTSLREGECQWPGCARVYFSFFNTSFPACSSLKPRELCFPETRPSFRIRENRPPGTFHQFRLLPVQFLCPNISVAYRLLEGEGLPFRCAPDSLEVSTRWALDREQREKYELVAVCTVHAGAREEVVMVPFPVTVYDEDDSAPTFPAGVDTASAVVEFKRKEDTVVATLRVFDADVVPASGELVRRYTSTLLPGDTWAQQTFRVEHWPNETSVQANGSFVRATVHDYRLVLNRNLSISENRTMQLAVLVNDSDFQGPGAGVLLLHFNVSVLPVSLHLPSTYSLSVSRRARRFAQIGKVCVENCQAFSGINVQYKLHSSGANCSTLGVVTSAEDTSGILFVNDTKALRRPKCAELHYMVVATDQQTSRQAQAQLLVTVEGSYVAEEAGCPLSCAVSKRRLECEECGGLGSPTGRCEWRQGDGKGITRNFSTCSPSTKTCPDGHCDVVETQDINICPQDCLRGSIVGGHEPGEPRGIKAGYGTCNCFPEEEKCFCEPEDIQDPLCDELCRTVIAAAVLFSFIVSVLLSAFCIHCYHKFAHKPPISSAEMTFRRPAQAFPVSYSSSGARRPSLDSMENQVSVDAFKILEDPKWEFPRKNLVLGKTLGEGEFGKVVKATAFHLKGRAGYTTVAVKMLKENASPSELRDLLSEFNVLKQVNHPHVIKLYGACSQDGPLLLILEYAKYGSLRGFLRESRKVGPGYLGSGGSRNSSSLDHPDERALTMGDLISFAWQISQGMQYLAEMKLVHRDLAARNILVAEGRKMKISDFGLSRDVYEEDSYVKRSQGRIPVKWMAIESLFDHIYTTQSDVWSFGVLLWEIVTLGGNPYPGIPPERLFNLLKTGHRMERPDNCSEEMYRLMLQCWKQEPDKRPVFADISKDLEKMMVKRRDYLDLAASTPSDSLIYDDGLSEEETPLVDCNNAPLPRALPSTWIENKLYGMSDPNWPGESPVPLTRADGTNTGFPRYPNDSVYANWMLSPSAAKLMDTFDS
Sequence of STK38 (human) (Q15208 whole entry, looked up): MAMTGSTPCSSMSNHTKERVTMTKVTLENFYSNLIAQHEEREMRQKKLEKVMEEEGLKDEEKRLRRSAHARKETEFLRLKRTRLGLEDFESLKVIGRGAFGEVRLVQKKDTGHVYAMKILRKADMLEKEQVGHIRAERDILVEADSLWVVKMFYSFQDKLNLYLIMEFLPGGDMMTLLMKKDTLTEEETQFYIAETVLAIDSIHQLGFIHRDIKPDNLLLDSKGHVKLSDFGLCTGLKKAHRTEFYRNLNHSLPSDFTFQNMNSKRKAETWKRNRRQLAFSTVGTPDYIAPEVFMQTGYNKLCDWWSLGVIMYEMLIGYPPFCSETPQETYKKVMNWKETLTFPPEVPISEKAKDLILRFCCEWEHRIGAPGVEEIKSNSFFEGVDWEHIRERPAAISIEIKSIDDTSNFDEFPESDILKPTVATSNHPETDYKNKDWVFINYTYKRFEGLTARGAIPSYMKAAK
Sequence of PRKCI (human) (P41743 whole entry, looked up): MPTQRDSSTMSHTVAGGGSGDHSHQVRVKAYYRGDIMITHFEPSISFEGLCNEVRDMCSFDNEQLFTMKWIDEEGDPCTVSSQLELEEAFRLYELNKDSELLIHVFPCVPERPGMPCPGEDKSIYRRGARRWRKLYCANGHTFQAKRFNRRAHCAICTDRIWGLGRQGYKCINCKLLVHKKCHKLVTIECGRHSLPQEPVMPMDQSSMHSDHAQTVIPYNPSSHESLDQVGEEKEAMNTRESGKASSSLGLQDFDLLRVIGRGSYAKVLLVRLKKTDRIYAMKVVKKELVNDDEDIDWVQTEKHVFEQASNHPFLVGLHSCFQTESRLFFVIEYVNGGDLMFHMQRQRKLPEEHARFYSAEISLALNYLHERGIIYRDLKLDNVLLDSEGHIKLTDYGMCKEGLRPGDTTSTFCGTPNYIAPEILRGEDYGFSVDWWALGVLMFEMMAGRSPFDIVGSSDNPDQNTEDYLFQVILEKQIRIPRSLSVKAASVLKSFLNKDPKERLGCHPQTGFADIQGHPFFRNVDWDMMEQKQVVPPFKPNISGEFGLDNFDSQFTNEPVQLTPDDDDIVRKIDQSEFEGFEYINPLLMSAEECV
Sequence of MAP2K1 (human) (Q02750 whole entry, looked up): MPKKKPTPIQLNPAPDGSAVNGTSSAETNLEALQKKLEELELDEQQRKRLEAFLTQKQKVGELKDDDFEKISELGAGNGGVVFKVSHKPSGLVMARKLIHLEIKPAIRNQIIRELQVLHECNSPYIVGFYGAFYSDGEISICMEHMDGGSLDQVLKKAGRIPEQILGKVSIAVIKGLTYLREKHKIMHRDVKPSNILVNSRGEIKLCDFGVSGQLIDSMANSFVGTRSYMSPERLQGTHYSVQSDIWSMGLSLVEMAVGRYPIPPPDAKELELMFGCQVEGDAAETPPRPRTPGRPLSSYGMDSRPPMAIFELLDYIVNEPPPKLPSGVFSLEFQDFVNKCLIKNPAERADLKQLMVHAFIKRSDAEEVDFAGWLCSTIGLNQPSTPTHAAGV

## Cc1cc([C@@H](C)Nc2ccccc2C(=O)O)c2nc(N3CCOCC3)cc(=O)n2c1
[1]
  kinase still bound, per cent of control: 82%
[2]
  kinase still bound, per cent of control: 94%
[3]
  kinase still bound, per cent of control: 96%
[4]
  kinase still bound, per cent of control: 94%
[5]
  kinase still bound, per cent of control: 74%
[6]
  kinase still bound, per cent of control: 90%
[7]
  kinase still bound, per cent of control: 99%
[8]
  kinase still bound, per cent of control: 100%
[9]
  kinase still bound, per cent of control: 94%
[10]
  kinase still bound, per cent of control: 76%
[11]
  kinase still bound, per cent of control: 15%
[12]
  kinase still bound, per cent of control: 79%
[13]
  kinase still bound, per cent of control: 97%
[14]
  kinase still bound, per cent of control: 100%
[15]
  kinase still bound, per cent of control: 98%
[16]
  kinase still bound, per cent of control: 90%
[17]
  kinase still bound, per cent of control: 100%
[18]
  kinase still bound, per cent of control: 31%
[19]
  kinase still bound, per cent of control: 94%
[20]
  kinase still bound, per cent of control: 100%
[21]
  kinase still bound, per cent of control: 100%
[22]
  kinase still bound, per cent of control: 81%
[23]
  kinase still bound, per cent of control: 95%
[24]
  kinase still bound, per cent of control: 100%
[25]
  kinase still bound, per cent of control: 1%
[26]
  kinase still bound, per cent of control: 62%
[27]
  kinase still bound, per cent of control: 94%
[28]
  kinase still bound, per cent of control: 100%
[29]
  kinase still bound, per cent of control: 52%
[30]
  kinase still bound, per cent of control: 100%
[31]
  kinase still bound, per cent of control: 100%
[32]
  kinase still bound, per cent of control: 71%
[33]
  kinase still bound, per cent of control: 90%
[34]
  kinase still bound, per cent of control: 100%
[35]
  kinase still bound, per cent of control: 84%
[36]
  kinase still bound, per cent of control: 79%
[37]
  kinase still bound, per cent of control: 89%
[38]
  kinase still bound, per cent of control: 95%
[39]
  kinase still bound, per cent of control: 15%
[40]
  kinase still bound, per cent of control: 95%
[41]
  kinase still bound, per cent of control: 100%
[42]
  kinase still bound, per cent of control: 72%
